Experimental data: ChEMBL document CHEMBL1134801, “Dibasic inhibitors of human mast cell tryptase. Part 3: identification of a series of potent and selective inhibitors containing the benzamidine functionality” (Bioorg Med Chem Lett, 2001)

What was measured:
Trypsin = Trypsin (Homo sapiens, UniProt P07477+P07478+P35030); experiment: Inhibition of trypsin in human mast cells; assay type: cell-based
Plasminogen = Plasminogen (Homo sapiens, UniProt P00747); experiment: Inhibition plasmin in human mast cells; assay type: cell-based
Prothrombin = Prothrombin (Homo sapiens, UniProt P00734); experiment: Inhibition of thrombin in human mast cells; assay type: cell-based
Tryptase = Tryptase (Homo sapiens, UniProt Q9BZJ3+Q15661+Q9NRR2); experiment: Inhibition of Tryptase in human mast cells; assay type: cell-based
[1] = Michaelis-Menten constant was determined for the compound after incubation with plasma amine oxidase; assay type: ADME, cell-free

Chain of Plasminogen (P00747 97-580 limits assumed): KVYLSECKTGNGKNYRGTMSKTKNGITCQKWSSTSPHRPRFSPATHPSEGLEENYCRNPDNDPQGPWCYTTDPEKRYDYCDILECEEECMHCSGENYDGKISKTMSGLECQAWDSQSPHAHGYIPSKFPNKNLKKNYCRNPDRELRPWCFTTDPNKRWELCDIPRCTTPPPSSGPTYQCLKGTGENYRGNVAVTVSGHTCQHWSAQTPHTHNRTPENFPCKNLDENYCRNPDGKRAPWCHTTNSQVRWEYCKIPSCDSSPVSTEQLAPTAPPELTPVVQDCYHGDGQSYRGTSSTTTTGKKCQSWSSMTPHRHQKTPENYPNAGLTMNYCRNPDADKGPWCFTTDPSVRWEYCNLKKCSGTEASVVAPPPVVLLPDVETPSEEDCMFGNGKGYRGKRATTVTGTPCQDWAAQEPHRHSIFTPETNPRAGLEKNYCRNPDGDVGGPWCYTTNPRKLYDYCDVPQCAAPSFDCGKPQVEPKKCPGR
Chain of Plasminogen (P00747 581-810 limits assumed): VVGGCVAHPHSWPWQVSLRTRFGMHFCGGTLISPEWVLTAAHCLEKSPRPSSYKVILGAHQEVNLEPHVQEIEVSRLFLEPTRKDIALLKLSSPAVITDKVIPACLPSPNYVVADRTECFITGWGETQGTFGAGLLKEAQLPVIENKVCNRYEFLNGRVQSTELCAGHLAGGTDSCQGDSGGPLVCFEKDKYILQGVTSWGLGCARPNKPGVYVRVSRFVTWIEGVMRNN

Row | Ki (Trypsin) | Ki (Plasminogen) | Ki (Prothrombin) | Ki (Tryptase) | Vmax / Km [1] | Compound
1 | > 1000 µM | > 1000 µM | > 1000 µM | 0.112 µM | – | NCC1CCN(C(=O)NCCCCNC(=O)OCc2ccc(COC(=O)NCCCCNC(=O)N3CCC(CN)CC3)cc2)CC1
2 | 21.1 µM | 293 µM | 52.9 µM | 0.0089 µM | – | N=C(N)c1ccc(NC(=O)CC2CCN(C(=O)O[C@H]3CCC[C@@H](OC(=O)N4CCN(C(=O)NCCC5CCNCC5)CC4)CCC3)CC2)cc1
3 | 37.4 µM | 320 µM | 31.9 µM | 0.0164 µM | – | N=C(N)c1ccc(C(=O)NCC2CCN(C(=O)O[C@H]3CCC[C@@H](OC(=O)N4CCN(C(=O)CCCC5CCNCC5)CC4)CCC3)CC2)cc1
4 | 515 µM | > 1000 µM | > 1000 µM | 0.024 µM | 1870 | NCC1CCN(C(=O)NCC2CCN(C(=O)OCc3ccc(COC(=O)N4CCC(CNC(=O)N5CCC(CN)CC5)CC4)cc3)CC2)CC1
5 | 4.4 µM | 0.006 µM | 42.2 µM | – | – | N=C(N)c1ccc(C(=O)NCC2CCN(C(=O)OCc3ccc(COC(=O)N4CCC(CNC(=O)c5ccc(C(=N)N)cc5)CC4)cc3)CC2)cc1
6 | 466 µM | > 1000 µM | 386 µM | 0.155 µM | – | N=C(N)N1CCC(CNC(=O)CNC(=O)OCc2ccc(COC(=O)NCC(=O)NCC3CCN(C(=N)N)CC3)cc2)CC1
7 | 25 µM | – | – | 0.0087 µM | – | N=C(N)c1ccc(CNC(=O)N2CCN(C(=O)O[C@H]3CCC[C@@H](OC(=O)N4CCN(C(=O)NCc5ccc(C(=N)N)cc5)CC4)CCC3)CC2)cc1
8 | 63.1 µM | > 1000 µM | 94.4 µM | 0.0067 µM | – | N=C(N)c1ccc(CC(=O)N2CCN(C(=O)O[C@H]3CCC[C@@H](OC(=O)N4CCN(C(=O)NCCC5CCNCC5)CC4)CCC3)CC2)cc1
9 | 47.2 µM | 287 µM | 111 µM | 0.00091 µM | – | N=C(N)c1ccc(CNC(=O)N2CCN(C(=O)O[C@H]3CCC[C@@H](OC(=O)N4CCN(C(=O)NCCC5CCNCC5)CC4)CCC3)CC2)cc1
10 | > 1000 µM | > 1000 µM | 423 µM | 0.11 µM | – | N=C(N)N1CCC(CCNC(=O)CNC(=O)OCc2ccc(COC(=O)NCC(=O)NCCC3CCN(C(=N)N)CC3)cc2)CC1
11 | 16.8 µM | > 1000 µM | > 1000 µM | 0.028 µM | – | N=C(N)c1ccc(S(=O)(=O)NCC2CCN(C(=O)O[C@H]3CCC[C@@H](OC(=O)N4CCN(C(=O)NCCC5CCNCC5)CC4)CCC3)CC2)cc1
12 | 554 µM | > 1000 µM | 561 µM | 0.0406 µM | – | COC(=O)NC(=N)c1ccc(CNC(=O)N2CCN(C(=O)O[C@H]3CCC[C@@H](OC(=O)N4CCN(C(=O)NCCC5CCNCC5)CC4)CCC3)CC2)cc1
13 | 52.1 µM | 310 µM | 102 µM | 0.00112 µM | – | N=C(N)c1ccc(CNC(=O)N2CCN(C(=O)O[C@H]3CCC[C@@H](OC(=O)N4CCN(C(=O)CCCC5CCNCC5)CC4)CCC3)CC2)cc1
14 | 38.8 µM | 279 µM | 41.2 µM | 0.016 µM | – | N=C(N)c1ccc(C(=O)NCC2CCN(C(=O)O[C@H]3CCC[C@@H](OC(=O)N4CCN(C(=O)NCCC5CCNCC5)CC4)CCC3)CC2)cc1
15 | 4.67 µM | 62.2 µM | 20.8 µM | 0.00085 µM | – | N=C(N)c1ccc(C(=O)NCC2CCN(C(=O)O[C@H]3CCC[C@@H](OC(=O)N4CCC(CNC(=O)c5ccc(C(=N)N)cc5)CC4)CCC3)CC2)cc1
